Reference: PMC2248166, “Quantitative peptide binding motifs for 19 human and mouse MHC class I molecules derived using positional scanning combinatorial peptide libraries” (Immunome Research, 2008)

What was measured:
Format in all cases: binding
H-2 K^d = H-2 K^d (Mus musculus, UniProt P01902)
HLA B*1503 = HLA B*1503 (Homo sapiens, UniProt P01889, A329T/A93T/A95T/C349S/D201E/D98Y/E187L/E204Q/K202T/N87E/Q94N/R155S/R180L/S121R/S35A/V306I/V36M/Y140S/Y91S); assay: biochemical
H-2 D^b = H-2 D^b (Mus musculus, UniProt P01899)
Sequence of H-2 D^b (P01887 21-119): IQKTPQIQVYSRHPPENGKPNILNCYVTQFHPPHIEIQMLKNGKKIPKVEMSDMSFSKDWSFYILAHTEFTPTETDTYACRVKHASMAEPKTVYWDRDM
Sequence of H-2 D^b (P01899 25-362): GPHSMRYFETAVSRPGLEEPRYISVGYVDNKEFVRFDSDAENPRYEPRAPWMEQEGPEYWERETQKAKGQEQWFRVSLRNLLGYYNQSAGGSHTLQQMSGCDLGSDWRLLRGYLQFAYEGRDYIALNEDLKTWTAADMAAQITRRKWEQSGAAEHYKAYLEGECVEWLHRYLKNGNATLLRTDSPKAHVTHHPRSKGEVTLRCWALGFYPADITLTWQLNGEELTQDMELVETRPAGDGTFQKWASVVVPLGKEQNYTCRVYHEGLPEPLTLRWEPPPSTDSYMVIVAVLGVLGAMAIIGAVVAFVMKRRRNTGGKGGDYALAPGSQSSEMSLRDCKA

HLA B*1501 = HLA B*1501 (Homo sapiens, UniProt P01889, A329T/A93T/A95T/C349S/D201E/D98Y/E187L/E204Q/E69M/E70A/K202T/N87E/Q94N/R155S/R180W/S121R/S35A/S48A/V306I/V36M/Y140S/Y91S); assay: biochemical
HLA A*3201 = HLA A*3201 (Homo sapiens, UniProt P04439, A270S/D101S/D185E/E176V/E277Q/F133L/G103R/G107R/G231S/H175R/I121M/I218V/I322F/K168Q/L105A/L300P/L318F/M331R/P208A/P217A/Q94H/R106L/R138Q/S129P/T104I/T323A/T345S/V100E/V321M/V358M); assay: biochemical
HLA B*3501 = HLA B*3501 (Homo sapiens, UniProt P01889, A329T/A93T/A95T/C349S/D201E/D98Y/E176V/E187L/E204Q/E69T/I218V/K202T/L119I/Q94N/R155S/R180L/S121R/S35A/S48A/T118I/V127L/V306I/V36M/Y140S/Y91F)
HLA A*3001 = HLA A*3001 (Homo sapiens, UniProt P04439, D140H/D185E/E176W/F33S/G80R/H175R/K168Q/R138E/R41S); assay: biochemical
H-2 D^d = H-2 D^d (Mus musculus, UniProt P01900)
Sequence of H-2 D^d (P01900 whole entry, looked up): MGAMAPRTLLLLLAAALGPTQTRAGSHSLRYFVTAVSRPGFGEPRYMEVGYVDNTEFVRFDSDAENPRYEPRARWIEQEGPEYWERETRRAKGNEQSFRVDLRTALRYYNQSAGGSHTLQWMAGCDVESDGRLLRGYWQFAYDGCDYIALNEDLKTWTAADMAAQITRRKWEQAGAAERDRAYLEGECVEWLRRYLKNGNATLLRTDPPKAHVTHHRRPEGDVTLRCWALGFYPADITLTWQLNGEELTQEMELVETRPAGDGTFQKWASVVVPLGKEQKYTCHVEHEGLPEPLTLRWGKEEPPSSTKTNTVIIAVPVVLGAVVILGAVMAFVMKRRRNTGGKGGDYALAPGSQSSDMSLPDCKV

HLA B*5802 = HLA B*5802 (Homo sapiens, UniProt P01889, A329T/C349S/D201E/D98Y/E176V/E187L/E204Q/E69T/G107R/I218V/I90N/K202T/L105A/N104I/N87E/Q89R/Q94S/R106L/R155S/R180L/R86G/S101N/S121W/S35A/S48A/V127L/V306I/V36M/Y140S/Y91M)
HLA B*5401 = HLA B*5401 (Homo sapiens, UniProt P01889, A329T/C349S/D138N/D201E/E176V/E187T/E204Q/E69G/I76V/K202T/L119W/R155S/R180L/S121T/S35A/S48A/V127L/V306I/V36M/Y140L)
H-2 K^k = H-2 K^k (Mus musculus, UniProt P04223)
Sequence of H-2 K^k (P01887 21-119): as the sequence (P01887 21-119) above
Sequence of H-2 K^k (P04223 22-369): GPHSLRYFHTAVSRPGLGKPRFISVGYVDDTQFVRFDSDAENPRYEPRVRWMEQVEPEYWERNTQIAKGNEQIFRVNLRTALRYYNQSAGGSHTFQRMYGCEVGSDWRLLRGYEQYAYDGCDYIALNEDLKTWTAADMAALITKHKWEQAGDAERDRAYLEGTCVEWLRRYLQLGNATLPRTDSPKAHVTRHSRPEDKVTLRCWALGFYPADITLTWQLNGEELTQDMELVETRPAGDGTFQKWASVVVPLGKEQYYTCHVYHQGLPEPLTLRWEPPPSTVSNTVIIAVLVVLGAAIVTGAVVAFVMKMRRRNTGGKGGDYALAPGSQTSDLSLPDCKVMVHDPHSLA

HLA A*6802 = HLA A*6802 (Homo sapiens, UniProt P04439, A269V/D140Y/D185E/E176V/E277Q/E87N/F33Y/G231S/I121R/I166T/I218V/L180W/L300P/L318F/N151K/P208A/P217A/Q86R/R138H/R169H/S129P/T345S/V36M)
HLA B*5801 = HLA B*5801 (Homo sapiens, UniProt P01889, A329T/C349S/D201E/D98Y/E176V/E187L/E204Q/E69T/G107R/I218V/I90N/K202T/L105A/L119I/N104I/N87E/Q89R/Q94S/R106L/R155S/R180L/R86G/S101N/S121R/S35A/S48A/T118I/V127L/V306I/V36M/Y140S/Y91M)
HLA B*0801 = HLA B*0801 (Homo sapiens, UniProt P01889, A93T/A95T/D138N/E176V/E187T/K202T/Q94N/R180D/S35A/V36M/Y33D/Y91F); assay: biochemical
HLA B*5301 = HLA B*5301 (Homo sapiens, UniProt P01889, A329T/A93T/A95T/C349S/D201E/D98Y/E176V/E187L/E204Q/E69T/G107R/I218V/K202T/L105A/L119I/N104I/Q94N/R106L/R155S/R180L/S101N/S121R/S35A/S48A/T118I/V127L/V306I/V36M/Y140S/Y91F)
HLA B*5101 = HLA B*5101 (Homo sapiens, UniProt P01889, A329T/A93T/A95T/C349S/D138N/D201E/D98Y/E187L/E204Q/E69T/G107R/I218V/K202T/L105A/L119W/N104I/Q94N/R106L/R155S/R180L/S101N/S121T/S35A/S48A/V306I/V36M/Y195H/Y91F)

Sequence of H-2 K^d (P01887 21-119): as the sequence (P01887 21-119) above
Sequence of H-2 K^d (P01902 22-368): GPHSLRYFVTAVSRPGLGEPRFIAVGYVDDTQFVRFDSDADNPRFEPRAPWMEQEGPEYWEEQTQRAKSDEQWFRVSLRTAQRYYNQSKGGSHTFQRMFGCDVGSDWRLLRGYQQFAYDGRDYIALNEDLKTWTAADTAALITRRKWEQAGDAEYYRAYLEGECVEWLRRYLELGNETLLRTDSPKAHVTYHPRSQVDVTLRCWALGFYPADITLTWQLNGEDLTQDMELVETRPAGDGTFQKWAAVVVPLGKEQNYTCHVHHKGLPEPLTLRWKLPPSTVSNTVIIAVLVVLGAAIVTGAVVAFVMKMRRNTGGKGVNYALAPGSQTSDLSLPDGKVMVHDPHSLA

| Sequence | Normalized average relative binding affinity(ARB) (H-2 K^d) | Normalized average relative binding affinity(ARB) (HLA B*1503) | Normalized average relative binding affinity(ARB) (H-2 D^b) | Normalized average relative binding affinity(ARB) (HLA B*1501) | Normalized average relative binding affinity(ARB) (HLA A*3201) | Normalized average relative binding affinity(ARB) (HLA B*3501) | Normalized average relative binding affinity(ARB) (HLA A*3001) | Normalized average relative binding affinity(ARB) (H-2 D^d) | Normalized average relative binding affinity(ARB) (HLA B*5802) | Normalized average relative binding affinity(ARB) (HLA B*5401) | Normalized average relative binding affinity(ARB) (H-2 K^k) | Normalized average relative binding affinity(ARB) (HLA A*6802) | Normalized average relative binding affinity(ARB) (HLA B*5801) | Normalized average relative binding affinity(ARB) (HLA B*0801) | Normalized average relative binding affinity(ARB) (HLA B*5301) | Normalized average relative binding affinity(ARB) (HLA B*5101) |
| --- | --- | --- | --- | --- | --- | --- | --- | --- | --- | --- | --- | --- | --- | --- | --- | --- |
| XXXEXXXXX [3064.0064] | 0.18 | 0.25 | 0.35 | 0.27 | 0.36 | 0.087 | 0.34 | 0.38 | 0.18 | 0.15 | 0.41 | 0.14 | 0.21 | 0.24 | 0.24 | 0.46 |
| XXXFXXXXX [3064.0065] | 0.098 | 0.41 | 0.38 | 0.42 | 1.0 | 0.10 | 1.0 | 0.96 | 0.45 | 0.31 | 0.38 | 0.74 | 0.31 | 0.55 | 0.21 | 0.64 |
| XXXGXXXXX [3064.0066] | 0.14 | 0.19 | 0.088 | 0.23 | 0.33 | 0.17 | 0.50 | 0.17 | 0.15 | 0.062 | 0.19 | 0.26 | 0.21 | 0.063 | 0.18 | 0.47 |
| XXXHXXXXX [3064.0067] | 0.22 | 0.29 | 0.29 | 0.19 | 0.32 | 0.16 | 0.45 | 0.53 | 0.32 | 0.21 | 0.13 | 0.30 | 0.40 | 0.26 | 0.089 | 0.18 |
| XXXIXXXXX [3064.0068] | 0.22 | 0.26 | 0.87 | 0.27 | 0.15 | 1.0 | 0.34 | 0.79 | 0.33 | 0.16 | 0.39 | 0.088 | 0.23 | 0.38 | 0.18 | 1.0 |
| XXXKXXXXX [3064.0069] | 0.23 | 0.30 | 0.43 | 0.43 | 0.39 | 0.097 | 0.32 | 0.39 | 0.55 | 0.42 | 0.26 | 0.095 | 0.44 | 0.52 | 0.12 | 0.90 |
| XXXLXXXXX [3064.0070] | 0.17 | 0.46 | 0.96 | 0.56 | 0.098 | 0.10 | 0.52 | 0.52 | 0.50 | 0.74 | 0.96 | 0.14 | 0.42 | 0.61 | 0.17 | 0.69 |
| XXXMXXXXX [3064.0071] | 0.22 | 1.0 | 0.65 | 0.56 | 0.58 | 0.27 | 0.38 | 0.49 | 0.44 | 0.13 | 0.42 | 0.55 | 0.54 | 1.0 | 0.46 | 0.46 |
